# Measured values published in the supplement of paper PMC10307832.
# How the values were obtained:
# Experiment in all cases: relative viability (nuclei count vs DMSO), 5 days (fraction); higher = more cells survive
# [1] = compound: COc1ncc(-c2ccc3nccc(-c4ccnnc4)c3c2)cc1NS(=O)(=O)c1ccc(F)cc1F [Omipalisib] + CS(=O)(=O)N1CCN(Cc2cc3nc(-c4cccc5[nH]ncc45)nc(N4CCOCC4)c3s2)CC1 [Pictilisib] (partner 1 µM)
# Procedure, shortened: (§1)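 A single step with final 0.05% Triton X-100, 1% formaldehyde and 1 ug/ml Hoechst fixed the cells and stained nuclei 5 days after treatment. Lung cancer cell lines in 1536-well plates had been treated by pin tool the day after seeding with one drug alone or a fixed anchor-drug dose plus five library-drug doses (not always all listed) in √10 steps, and nuclei were counted on 4× images. Relative viability is the ratio of nuclei in treated wells to nuclei in vehicle wells, taken as the median of duplicate plates.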
# [2] = compound: COc1ncc(-c2ccc3nccc(-c4ccnnc4)c3c2)cc1NS(=O)(=O)c1ccc(F)cc1F [Omipalisib] + CS(=O)(=O)CCNCc1ccc(-c2ccc3ncnc(Nc4ccc(OCc5cccc(F)c5)c(Cl)c4)c3c2)o1 [Lapatinib] (partner 2 µM)
# Procedure, shortened: as §1
# [3] = compound: COc1ncc(-c2ccc3nccc(-c4ccnnc4)c3c2)cc1NS(=O)(=O)c1ccc(F)cc1F [Omipalisib] + CC(C)C[C@H](NC(=O)[C@H](Cc1ccccc1)NC(=O)c1cnccn1)B(O)O [Bortezomib] (partner 0.002 µM)
# Procedure, shortened: as §1
# [4] = compound: COc1ncc(-c2ccc3nccc(-c4ccnnc4)c3c2)cc1NS(=O)(=O)c1ccc(F)cc1F [Omipalisib] + Cc1nc(Nc2ncc(C(=O)Nc3c(C)cccc3Cl)s2)cc(N2CCN(CCO)CC2)n1 [Dasatinib] (partner 0.075 µM)
# Procedure, shortened: as §1
# [5] = compound: COc1ncc(-c2ccc3nccc(-c4ccnnc4)c3c2)cc1NS(=O)(=O)c1ccc(F)cc1F [Omipalisib] + COc1cc2c(Oc3ccc(NC(=O)C4(C(=O)Nc5ccc(F)cc5)CC4)cc3F)ccnc2cc1OCCCN1CCOCC1 [Foretinib] (partner 0.25 µM)
# Procedure, shortened: as §1
# [6] = compound: COc1ncc(-c2ccc3nccc(-c4ccnnc4)c3c2)cc1NS(=O)(=O)c1ccc(F)cc1F [Omipalisib] + C[C@]1(O)C[C@@H](c2nc(-c3ccc4ccc(-c5ccccc5)nc4c3)c3c(N)nccn32)C1 [Linsitinib] (partner 1 µM)
# Procedure, shortened: as §1
# [7] = compound: COc1ncc(-c2ccc3nccc(-c4ccnnc4)c3c2)cc1NS(=O)(=O)c1ccc(F)cc1F [Omipalisib] + N=C(N)NC(=N)NCCc1ccccc1 [Phenformin] (partner 250 µM)
# Procedure, shortened: as §1
# [8] = compound: COc1ncc(-c2ccc3nccc(-c4ccnnc4)c3c2)cc1NS(=O)(=O)c1ccc(F)cc1F [Omipalisib] + C[C@@H](Oc1cc(-c2cnn(C3CCNCC3)c2)cnc1N)c1c(Cl)ccc(F)c1Cl [Crizotinib] (partner 1 µM)
# Procedure, shortened: as §1
# [9] = compound: COc1ncc(-c2ccc3nccc(-c4ccnnc4)c3c2)cc1NS(=O)(=O)c1ccc(F)cc1F [Omipalisib] + Nc1nc2[nH]cc(CCc3ccc(C(=O)N[C@@H](CCC(=O)O)C(=O)O)cc3)c2c(=O)[nH]1 [Pemetrexed] (partner 0.2 µM)
# Procedure, shortened: as §1
# [10] = compound: COc1ncc(-c2ccc3nccc(-c4ccnnc4)c3c2)cc1NS(=O)(=O)c1ccc(F)cc1F [Omipalisib] + COc1cccc2cc(-c3nc([C@H]4CC[C@H](C(=O)O)CC4)n4ncnc(N)c34)[nH]c12 [OSI-027] (partner 0.5 µM)
# Procedure, shortened: as §1
# [11] = compound: COc1ncc(-c2ccc3nccc(-c4ccnnc4)c3c2)cc1NS(=O)(=O)c1ccc(F)cc1F [Omipalisib] + Cc1nc(NC(=O)N2CCC[C@H]2C(N)=O)sc1-c1ccnc(C(C)(C)C(F)(F)F)c1 [Alpelisib] (partner 2 µM)
# Procedure, shortened: as §1
# [12] = compound: COc1ncc(-c2ccc3nccc(-c4ccnnc4)c3c2)cc1NS(=O)(=O)c1ccc(F)cc1F [Omipalisib] + CCNC(=O)c1noc(-c2cc(C(C)C)c(O)cc2O)c1-c1ccc(CN2CCOCC2)cc1 [Luminespib] (partner 0.01 µM)
# Procedure, shortened: as §1
# [13] = compound: COc1ncc(-c2ccc3nccc(-c4ccnnc4)c3c2)cc1NS(=O)(=O)c1ccc(F)cc1F [Omipalisib]
# Procedure, shortened: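 For viability, nuclei in each treated well were divided by nuclei in vehicle wells and the median across plates was taken. Lung cancer cell lines in 1536-well plates were pinned with five library-drug doses (not always all listed) spaced by √10, cultured 5 days without medium change, and imaged at 4× after Hoechst staining, with plates passing only at control CV below 25% and at least one doubling.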
cell line,measurement,setting,value
NCI-H1563,relative viability,[1]; first compound 0.0003 µM,0.575
same,relative viability,[1]; first compound 0.003 µM,0.67
same,relative viability,[1]; first compound 0.03 µM,0.694
same,relative viability,[2]; first compound 0.0003 µM,0.747
same,relative viability,[2]; first compound 0.003 µM,0.848
same,relative viability,[2]; first compound 0.03 µM,0.747
same,relative viability,[3]; first compound 0.0003 µM,0.756
same,relative viability,[3]; first compound 0.003 µM,0.667
same,relative viability,[3]; first compound 0.03 µM,0.7
same,relative viability,[4]; first compound 0.0003 µM,0.484
same,relative viability,[4]; first compound 0.003 µM,0.442
same,relative viability,[4]; first compound 0.03 µM,0.354
same,relative viability,[5]; first compound 0.0003 µM,0.841
same,relative viability,[5]; first compound 0.003 µM,0.806
same,relative viability,[5]; first compound 0.03 µM,0.585
same,relative viability,[6]; first compound 0.0003 µM,0.844
same,relative viability,[6]; first compound 0.003 µM,0.992
same,relative viability,[6]; first compound 0.03 µM,0.77
same,relative viability,[7]; first compound 0.0003 µM,0.639
same,relative viability,[7]; first compound 0.003 µM,0.579
same,relative viability,[7]; first compound 0.03 µM,0.535
same,relative viability,[8]; first compound 0.0003 µM,0.698
same,relative viability,[8]; first compound 0.003 µM,0.796
same,relative viability,[8]; first compound 0.03 µM,0.609
same,relative viability,[9]; first compound 0.0003 µM,0.714
same,relative viability,[9]; first compound 0.003 µM,0.616
same,relative viability,[9]; first compound 0.03 µM,0.462
same,relative viability,[10]; first compound 0.0003 µM,0.759
same,relative viability,[10]; first compound 0.003 µM,0.583
same,relative viability,[10]; first compound 0.03 µM,0.602
same,relative viability,[11]; first compound 0.0003 µM,0.756
same,relative viability,[11]; first compound 0.003 µM,0.841
same,relative viability,[11]; first compound 0.03 µM,0.587
same,relative viability,[12]; first compound 0.0003 µM,0.557
same,relative viability,[12]; first compound 0.003 µM,0.515
same,relative viability,[12]; first compound 0.03 µM,0.445
same,relative viability,[13]; 0.0003 µM,0.87
same,relative viability,[13]; 0.003 µM,0.801
same,relative viability,[13]; 0.03 µM,0.577
